Values joined by “and” are separate entries in the source; they are usually repeats but may differ in a detail not shown here. Equal entries are not always repeated.
Experiments:
[1] = tested on: SARS-CoV-2 S-mediated membrane fusion in the presence of TMPRSS2
[2] = tested on: SARS-CoV-2 S-mediated membrane fusion
[3] = Cell viability, Cell-Titer Glo (ATP levels), Vero E6; format: cell-based; conditions: African green monkey, Fig. 6C; for CC50 / CC90: 48 h
Procedure: (§1) The toxicity of the compounds was evaluated with Cell-Titer Glo (Promega) following the manufacturer’s indications. Briefly, cells were seeded (~ 1 × 10^4 cells/plate) in an opaque white 96-well plate and treated with the appropriate compound at the indicated concentration for 48 h. Next, 100 µl of CellTiter-Glo® reagent was added and let the luminescence signal stabilizes for 10 min. The luminescence was recorded on a VictorX multi-plate reader (Perking Elmer, Waltham, MA, USA).
(§2) Fig. 6 Toxicity of hit compounds. A, B The toxicity in Hek 293T and Vero E6 cells (A and B, respectively) was analyzed after incubating the compounds at the indicated concentration for 48 h. Toxicity was analyzed by measuring ATP levels using the Cell-Titer Glo assay (Promega) following the manufacturer’s indications. Dots represent the average of at least three independent experiments. C The CC10, CC50, and CC90 values were calculated with the data shown in panels A and B TEXT PRINTED IN THE PICTURE: (C) Latanoprost: Hek293T CC10 (μM): 16.2; Hek293T CC50 (μM): 63.9; Hek293T CC90 (μM): 270; Vero E6 CC10 (μM): 76.9; Vero E6 CC50 (μM): 124; Vero E6 CC90 (μM): 171 | (C) Diperodon: Hek293T CC10 (μM): 14.2; Hek293T CC50 (μM): 41; Hek293T CC90 (μM): 98.3; Vero E6 CC10 (μM): 24; Vero E6 CC50 (μM): 88; Vero E6 CC90 (μM): 153 | (C) Ethynylestradiol: Hek293T CC10 (μM): 11.8; Hek293T CC50 (μM): 49.9; Hek293T CC90 (μM): 169.9; Vero E6 CC10 (μM): 13.6; Vero E6 CC50 (μM): 96.6; Vero E6 CC90 (μM): 224 | (C) Simvastatin: Hek293T CC10 (μM): 8.0; Hek293T CC50 (μM): 34.2; Hek293T CC90 (μM): 125.8; Vero E6 CC10 (μM): 3.11; Vero E6 CC50 (μM): 6.02; Vero E6 CC90 (μM): 61.2 | (C) Rabeprazol: Hek293T CC10 (μM): 14.3; Hek293T CC50 (μM): 38.1; Hek293T CC90 (μM): 83.6; Vero E6 CC10 (μM): 51.6; Vero E6 CC50 (μM): 122.8; Vero E6 CC90 (μM): 194 | (C) Ethaverine: Hek293T CC10 (μM): 9.7; Hek293T CC50 (μM): 43.8; Hek293T CC90 (μM): 120.7; Vero E6 CC10 (μM): 45; Vero E6 CC50 (μM): 119.8; Vero E6 CC90 (μM): 194.7

Vero E6 cells = assay: as above; format: cell-based; conditions: 48 h, Fig. 6C
Procedure: as §1, §2

[4] = Cell viability, Cell-Titer Glo (ATP levels), Hek 293T; format: cell-based; conditions: human; for CC50 / CC90: 48 h
Procedure: as §1, §2

Hek 293T cells [5] = assay: as above; format: cell-based; conditions: 48 h, Fig. 6C
Procedure: as §1, §2

IAV/WSN/33 = format: cell-based, Influenza A virus
SARS-CoV-2 = format: cell-based
[6] = tested on: Nipah virus membrane fusion; format: cell-based; conditions: Hek 293T, NiV F and G, 48 h
Hek 293T cells [7] = assay: Cell viability, Cell-Titer Glo (ATP levels), Hek 293T; format: cell-based; conditions: Hek 293T transfected with TMPRSS2 or eYFP, Fig. S2
[8] = Table 1, Hek 293T, read-out: CC50
[9] = Fig. 6C, read-out: Hek293T CC50
[10] = Fig. 6C, read-out: Hek293T CC90

Row | Compound | Activity index (Fusion % at CC50/CC50), TMPRSS2 [1] | Fusion % at CC50, TMPRSS2 [1] | Activity index (Fusion % at CC50/CC50), NO TMPRSS2 [2] | Fusion % at CC50, NO TMPRSS2 [2] | CC50 [3] | CC90 [3] | Vero E6 CC10 (Vero E6 cells) | CC50 [4, 8] | CC50 [4, 9] | CC90 [4, 10] | Hek293T CC10 (Hek 293T cells [5]) | effect on IAV titers (in words) (IAV/WSN/33) | effect on SARS-CoV-2 viral titers (in words) (SARS-CoV-2) | effect on NiV-induced membrane fusion (in words) [6] | increase in viral-induced membrane fusion (in words) [2] | Z-score [2] | also measured
1 | O=C(Nc1ccccc1)OCC(CN1CCCCC1)OC(=O)Nc1ccccc1 (stereo not drawn) [Diperodon] | 3,39 | 138,77% | 3,03 | 123,98% | 88 µM | 153 µM | 24 µM | 41 µM | 41 µM | 98.3 µM | 14.2 µM |  |  |  |  |  | 
2 | CCOc1ccc(Cc2nccc3cc(OCC)c(OCC)cc23)cc1OCC [Ethaverine] | 9,56 | 419,22% | 2,86 | 125,39% | 120 µM | 195 µM | 45 µM | 43.8 µM | 43.8 µM | 121 µM | 9.7 µM | did not increase viral titers | did not increase or accelerate the growth | enhance viral-mediated membrane fusion in a mild dose-dependent manner |  |  | 
3 | C#C[C@]1(O)CC[C@H]2[C@@H]3CCc4cc(O)ccc4[C@H]3CC[C@@]21C [Ethynylestradiol] | 6,27 | 312,60% | 3,25 | 162,00% | 96.6 µM | 224 µM | 13.6 µM | 49.9 µM | 49.9 µM | 170 µM | 11.8 µM | increases IAV titers by approximately one log | increased viral titers | enhance viral-mediated membrane fusion in a mild dose-dependent manner | stronger inducers |  | SARS-CoV-2 titer, Average (SARS-CoV-2): 2.6x10^6 pfu/mL and 3.6x10^6 pfu/mL and 5.0x10^6 pfu/mL; toxicity in the presence of TMPRSS2 (in words) (Hek 293T cells [7]): compound toxicity was not affected by the presence of the cellular protease
4 | CC(C)OC(=O)CCC/C=C\C[C@@H]1[C@@H](CC[C@@H](O)CCc2ccccc2)[C@H](O)C[C@@H]1O [Latanoprost] | 2,39 | 152,75% | 1,11 | 70,98% | 124 µM | 171 µM | 76.9 µM | 63.9 µM | 63.9 µM | 270 µM | 16.2 µM |  |  |  | stronger inducers |  | 
5 | COCCCOc1ccnc(C[S+]([O-])c2nc3ccccc3[nH]2)c1C (stereo not drawn) [Rabeprazol] | 6,39 | 243,51% | 4,70 | 179,16% | 123 µM | 194 µM | 51.6 µM | 38.1 µM | 38.1 µM | 83.6 µM | 14.3 µM | did not increase viral titers | increased viral titers | enhance viral-mediated membrane fusion in a mild dose-dependent manner |  |  | SARS-CoV-2 titer, Average (SARS-CoV-2): 3.2x10^6 pfu/mL and 4.2x10^6 pfu/mL and 6.1x10^6 pfu/mL
6 | CCC(C)(C)C(=O)O[C@H]1C[C@@H](C)C=C2C=C[C@H](C)[C@H](CC[C@@H]3C[C@@H](O)CC(=O)O3)[C@H]21 [Simvastatin] | 4,79 | 163,57% | 5,03 | 172,00% |  |  | 3.11 µM |  |  |  | 8.0 µM |  |  |  | stronger inducers | 1,72 | CC50 at 48 h [3]: ~6 µM; CC90 at 48 h [3]: 61.2 µM; CC50 (Vero E6 cells): 6.02 µM; CC50 at 48 h [4, 9]: 34.2 µM; CC90 at 48 h [4, 10]: 126 µM; CC50 at 48 h [4, 8]: 34.2 µM
7 | CCCOc1ccccc1-c1nc2nn[nH]c2c(=O)[nH]1 [Zaprinast] |  |  |  |  |  |  |  |  |  |  |  |  |  |  |  | 1,64 | 
8 | O=P(O)(O)C(O)(Cn1ccnc1)P(=O)(O)O [Zoledronic acid hydrate] |  |  |  |  |  |  |  |  |  |  |  |  |  |  |  | 2,27 | 
9 | Meclocycline sulfosalicylate |  |  |  |  |  |  |  |  |  |  |  |  |  |  |  | 5,55 | 
10 | Tyloxapol |  |  |  |  |  |  |  |  |  |  |  |  |  |  |  | 3,89 | 

— publication PMC10206591, “Identification of small molecules capable of enhancing viral membrane fusion” (Virology Journal, 2023)
